From patent US11339142B2, “Di-substituted pyrazole compounds for the treatment of diseases” (FGH BIOTECH, INC., priority 2016, dated 2022)

What was measured:
[1] = system: SCD1 expression; assay: Quantitative PCR (qPCR) inhibition assay, SCD1 mRNA expression in Hep G2 cells; format: cell-based; conditions: Homo sapiens, HepG2 cells, 24 hours incubation, mRNA by qPCR, read-out: SCD1 Inhibition Percentage (%) at 1 μM
Experimental: Hep G2 cells were obtained from ATCC and grown in DMEM supplemented with 10% FBS in a 5% CO2 incubator at 37° C. For the assay the cells were plated in 96 well plates at a concentration of 75,000 cells/well in DMEM with 5% FBS. The compounds were serially diluted in DMSO from 30 to 0.1 mM and then diluted 1:1000 in growth medium. The medium was added to the cells in duplicate 24 hours after plating. After 24 hours of incubation the RNA was isolated from the cells using the RNAqueous®-96 Total RNA Isolation Kit (Ambion). The eluted RNA was reverse transcribed using the Cells-to-Ct kit reverse transcriptase (Ambion). For the quantitative PCR the cDNA was analyzed using the Power SYBR® Green PCR Master Mix (Applied Biosystems) and gene specific primers. The reaction was run on an ABI7300 thermocycler and the instrument software was used to determine the Ct values. The fold change of mRNA expression relative to the vehicle control was calculated using the method by Livak. Primer sequence was as follows: SCD1, 5′-[…]-3′/5′-[…]-3′.
(§1) All data for Biological Examples 1a and 1b were measured in HepG2 cells. % inhibition of SCD1 expression, % inhibition of PCSK9 expression, and PCSK9 IC50 data are provided in Table 1. NA means the compound was not active at the concentration tested.

[2] = system: PCSK9 expression; assay: Quantitative PCR (qPCR) inhibition assay, PCSK9 mRNA expression in Hep G2 cells; format: cell-based; conditions: Homo sapiens, HepG2 cells, 24 hours incubation, mRNA by qPCR; for inhibition at 0.32 µM: 320 nM, read-out: PCSK9 Inhibition Percentage (%) at 320 nM
Experimental: Hep G2 cells were obtained from ATCC and grown in DMEM supplemented with 5% FBS in a 5% CO2 incubator at 37° C. For the assay the cells were plated in 24 well plates at a concentration of 100,000 cells/well in DMEM with 5% FBS. The compounds were serially diluted in DMSO from 0.1 to 20 mM and then diluted 1:1000 in growth medium. The medium was added to the cells in duplicate 24 hours after plating. After 24 hours of incubation the RNA was isolated from the cells using the illustra RNAspin Mini kit (GE Healthcare). For the quantitative PCR the RNA was analyzed using the Power SYBR® Green PCR Master Mix (Applied Biosystems) and gene specific primers. The reaction was run on a StepOnePlus Real-Time PCR System (Thermo Fisher Scientific) and the instrument software was used to determine the Ct values. The fold change of mRNA expression relative to the vehicle control was calculated. Primer sequence was as follows: PCSK9, 5′-[…]-3′/5′-[…]-3′.
as §1

| IC50 [2] [nM] | Compound | inhibition at 1 µM [1] [%] | inhibition at 0.32 µM [2] [%] |
| --- | --- | --- | --- |
| – | CCCn1cc(-n2cc(-c3ccc(O[C@H](C)CC)nc3C)cn2)ccc1=O [Example 10] | ≥ 40 | ≥ 40 |
| 150 to 600 | CCCn1cc(-n2cc(-c3ccc(S(=O)(=O)C(C)C)cc3Cl)cn2)ccc1=O [Example 17] | ≥ 40 | ≥ 40 |
| – | CCCn1cc(-n2cc(-c3ccc(S(=O)(=O)CC(C)C)cc3Cl)cn2)ccc1=O [Example 18] | 10 to 40 | 10 to 40 |
| 150 to 600 | CCCn1cc(-n2cc(-c3ccc(S(=O)(=O)C4CCC4)cc3F)cn2)ccc1=O [Example 22] | ≥ 40 | – |
| ≤ 150 | CCCn1cc(-n2cc(-c3ccc(S(=O)(=O)C4CCC4)cc3Cl)cn2)ccc1=O [Example 23] | ≥ 40 | – |
